Laboratory results reported in BindingDB's records for doi:10.1124/jpet.105.083337 (Neurocrine Biosciences, 2005).

Biological target: Melanocortin receptor 4 (Homo sapiens, UniProt P32245)
Sequence (P32245 whole entry): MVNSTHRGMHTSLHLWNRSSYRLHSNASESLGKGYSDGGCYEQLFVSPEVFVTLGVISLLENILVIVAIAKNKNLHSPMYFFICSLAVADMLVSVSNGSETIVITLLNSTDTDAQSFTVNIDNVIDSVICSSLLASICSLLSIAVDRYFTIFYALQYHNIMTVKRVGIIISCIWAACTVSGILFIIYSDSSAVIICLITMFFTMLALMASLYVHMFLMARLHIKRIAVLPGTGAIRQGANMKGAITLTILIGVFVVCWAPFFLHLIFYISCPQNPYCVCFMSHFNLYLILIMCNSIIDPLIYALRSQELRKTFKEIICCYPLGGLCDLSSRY

Ki [nM]	SMILES
74.1	CN(Cc1cccnc1)Cc1ccccc1N1CCN(C(=O)[C@@H](Cc2ccc(Cl)cc2)NC(=O)[C@H]2Cc3ccccc3CN2)CC1
20	C[C@@H]1CN(Cc2ccccc2N2CCN(C(=O)[C@@H](Cc3ccc(Cl)cc3)NC(=O)[C@H]3Cc4ccccc4CN3)CC2)[C@@H](C)CN1 [NBI-56297]
6.31	CN(Cc1ccccc1N1CCN(C(=O)[C@@H](Cc2ccc(Cl)cc2)NC(=O)[C@H]2Cc3ccccc3CN2)CC1)C1CCCNC1 (some centres undefined) [NBI-58702]
13.5	CC(Nc1cc[nH]c1)c1ccccc1N1CCN(C(=O)[C@@H](Cc2ccc(Cl)cc2)NC(=O)[C@H]2Cc3ccccc3CN2)CC1 (some centres undefined) [NBI-58704]
